pIC50: −log10 of the molar value.
Experiments:
DBTRG-05MG = test: cells; type: functional, cell-based, Homo sapiens; conditions: Homo sapiens, DBTRG-05MG;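 note: cell viability assay measuring growth inhibition of human DBTRG-05MG cells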
Description: SANGER: Inhibition of human DBTRG-05MG cell growth in a cell viability assay.

Daoy = test: cells; type: functional, cell-based, Homo sapiens; conditions: Homo sapiens, Daoy
Description: SANGER: Inhibition of human Daoy cell growth in a cell viability assay.

EFO-27 = test: cells; type: functional, cell-based, Homo sapiens; conditions: Homo sapiens, EFO-27;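 note: growth inhibition of EFO-27 cells, read out with a cell viability assay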
Description: SANGER: Inhibition of human EFO-27 cell growth in a cell viability assay.

EGI-1 = test: cells; type: functional, cell-based, Homo sapiens; conditions: Homo sapiens, EGI-1;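 note: cell viability readout used to gauge growth inhibition of EGI-1 cells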
Description: SANGER: Inhibition of human EGI-1 cell growth in a cell viability assay.

EVSA-T = test: cells; type: functional, cell-based, Homo sapiens; conditions: Homo sapiens, EVSA-T;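 note: growth inhibition of EVSA-T cells, read out with a cell viability assay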
Description: SANGER: Inhibition of human EVSA-T cell growth in a cell viability assay.

HCC1395 = test: cells; type: functional, cell-based, Homo sapiens; conditions: Homo sapiens, HCC1395;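 note: growth inhibition of HCC1395 cells, read out by a cell viability assay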
Description: SANGER: Inhibition of human HCC1395 cell growth in a cell viability assay.

HCC1419 = test: cells; type: functional, cell-based, Homo sapiens; conditions: Homo sapiens, HCC1419;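 note: growth inhibition of human HCC1419 cells, read out as cell viability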
Description: SANGER: Inhibition of human HCC1419 cell growth in a cell viability assay.

HCT-116 = test: cells; type: functional, cell-based, Homo sapiens; conditions: Homo sapiens, HCT-116
Description: SANGER: Inhibition of human HCT-116 cell growth in a cell viability assay.

HEC-1 = test: cells; type: functional, cell-based, Homo sapiens; conditions: Homo sapiens, HEC-1
Description: SANGER: Inhibition of human HEC-1 cell growth in a cell viability assay.

HGC-27 = test: cells; type: functional, cell-based, Homo sapiens; conditions: Homo sapiens, HGC-27;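 note: growth inhibition of human HGC-27 cells, read out in a cell viability assay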
Description: SANGER: Inhibition of human HGC-27 cell growth in a cell viability assay.

IGR-1 = test: cells; type: functional, cell-based, Homo sapiens; conditions: Homo sapiens, IGR-1;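 note: growth inhibition of human IGR-1 cells, read out with a cell viability assay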
Description: SANGER: Inhibition of human IGR-1 cell growth in a cell viability assay.

KOSC-2 = test: cells; type: functional, cell-based, Homo sapiens; conditions: Homo sapiens, KOSC-2;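 note: growth inhibition of KOSC-2 cells, read out by a cell viability assay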
Description: SANGER: Inhibition of human KOSC-2 cell growth in a cell viability assay.

KYSE-520 cell line = test: cells; type: functional, cell-based, Homo sapiens; conditions: Homo sapiens, KYSE-520;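 note: growth inhibition of human KYSE-520 cells, read out with a viability assay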
Description: SANGER: Inhibition of human KYSE-520 cell growth in a cell viability assay.

MDA-MB-175-VII = test: cells; type: functional, cell-based, Homo sapiens; conditions: Homo sapiens, MDA-MB-175-VII
MDA-MB-231 = test: cells; type: functional, cell-based, Homo sapiens; conditions: Homo sapiens, MDA-MB-231
Description: SANGER: Inhibition of human MDA-MB-231 cell growth in a cell viability assay.

MHH-ES-1 = test: cells; type: functional, cell-based, Homo sapiens; conditions: Homo sapiens, MHH-ES-1
Description: SANGER: Inhibition of human MHH-ES-1 cell growth in a cell viability assay.

MONO-MAC-6 = test: cells; type: functional, cell-based, Homo sapiens; conditions: Homo sapiens, MONO-MAC-6;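 note: cell viability assay measuring growth inhibition of human MONO-MAC-6 cells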
Description: SANGER: Inhibition of human MONO-MAC-6 cell growth in a cell viability assay.

NALM-6 = test: cells; type: functional, cell-based, Homo sapiens; conditions: Homo sapiens, NALM-6;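 note: growth inhibition of NALM-6 cells, read out with a cell viability assay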
Description: SANGER: Inhibition of human NALM-6 cell growth in a cell viability assay.

NCI-H1573 = test: cells; type: functional, cell-based, Homo sapiens; conditions: Homo sapiens, NCI-H1573;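 note: growth inhibition of NCI-H1573 cells, read out with a cell viability assay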
Description: SANGER: Inhibition of human NCI-H1573 cell growth in a cell viability assay.

NCI-H2087 = test: cells; type: functional, cell-based, Homo sapiens; conditions: Homo sapiens, NCI-H2087;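 note: growth inhibition determined with a cell viability readout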
Description: SANGER: Inhibition of human NCI-H2087 cell growth in a cell viability assay.

NCI-H292 = test: cells; type: functional, cell-based, Homo sapiens; conditions: Homo sapiens, NCI-H292;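 note: growth inhibition of NCI-H292 cells, read out with a cell viability assay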
Description: SANGER: Inhibition of human NCI-H292 cell growth in a cell viability assay.

NCI-H889 = test: cells; type: functional, cell-based, Homo sapiens; conditions: Homo sapiens, NCI-H889
Description: SANGER: Inhibition of human NCI-H889 cell growth in a cell viability assay.

OVCAR-8 = test: cells; type: functional, cell-based, Homo sapiens; conditions: Homo sapiens, OVCAR-8;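 note: growth inhibition of human OVCAR-8 cells, read out by a cell viability assay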
Description: SANGER: Inhibition of human OVCAR-8 cell growth in a cell viability assay.

P31-FUJ = test: cells; type: functional, cell-based, Homo sapiens; conditions: Homo sapiens, P31-FUJ;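 note: growth inhibition of P31-FUJ cells, read out with a viability assay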
Description: SANGER: Inhibition of human P31-FUJ cell growth in a cell viability assay.

PANC-03-27 = test: cells; type: functional, cell-based, Homo sapiens; conditions: Homo sapiens, PANC-03-27
Description: SANGER: Inhibition of human PANC-03-27 cell growth in a cell viability assay.

RPMI-6666 = test: cells; type: functional, cell-based, Homo sapiens; conditions: Homo sapiens, RPMI-6666
Description: SANGER: Inhibition of human RPMI-6666 cell growth in a cell viability assay.

RPMI 8402 = test: SANGER: Inhibition of human RPMI-8402 cell growth in a cell viability assay.; type: functional, cell-based; conditions: Homo sapiens, RPMI 8402; read-out: IC50
S-117 = test: cells; type: functional, cell-based, Homo sapiens; conditions: Homo sapiens, S-117
Description: SANGER: Inhibition of human S-117 cell growth in a cell viability assay.

SCC-4 = test: cells; type: functional, cell-based, Homo sapiens; conditions: Homo sapiens, SCC-4;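 note: growth inhibition of human SCC-4 cells, read out as cell viability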
Description: SANGER: Inhibition of human SCC-4 cell growth in a cell viability assay.

SIMA = test: cells; type: functional, cell-based, Homo sapiens; conditions: Homo sapiens, SIMA;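 note: growth inhibition of SIMA cells, measured with a cell viability readout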
Description: SANGER: Inhibition of human SIMA cell growth in a cell viability assay.

SK-LU-1 = test: cells; type: functional, cell-based, Homo sapiens; conditions: Homo sapiens, SK-LU-1;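 note: cell viability assay measuring growth inhibition of human SK-LU-1 cells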
Description: SANGER: Inhibition of human SK-LU-1 cell growth in a cell viability assay.

SNU-423 = test: cells; type: functional, cell-based, Homo sapiens; conditions: Homo sapiens, SNU-423
Description: SANGER: Inhibition of human SNU-423 cell growth in a cell viability assay.

SNU-449 = test: cells; type: functional, cell-based, Homo sapiens; conditions: Homo sapiens, SNU-449
Description: SANGER: Inhibition of human SNU-449 cell growth in a cell viability assay.

A-431 = test: cells; type: functional, cell-based, Homo sapiens; conditions: Homo sapiens, A-431;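 note: growth inhibition of A-431 cells, determined with a cell viability read-out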
Description: SANGER: Inhibition of human A431 cell growth in a cell viability assay.

AGS = test: cells; type: functional, cell-based, Homo sapiens; conditions: Homo sapiens, AGS;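 note: growth inhibition of AGS cells, determined with a cell viability assay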
Description: SANGER: Inhibition of human AGS cell growth in a cell viability assay.

BC1 cell line = test: SANGER: Inhibition of human BC-1 cell growth in a cell viability assay.; type: functional, cell-based; conditions: Homo sapiens, BC1
BPH-1 = test: cells; type: functional, cell-based, Homo sapiens; conditions: Homo sapiens, BPH-1;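 note: cell viability assay measuring growth inhibition of human BPH-1 cells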
Description: SANGER: Inhibition of human BPH-1 cell growth in a cell viability assay.

BXPC-3 = test: cells; type: functional, cell-based, Homo sapiens; conditions: Homo sapiens, BXPC-3;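 note: growth inhibition of human BxPC-3 cells, read out by a cell viability assay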
Description: SANGER: Inhibition of human BxPC-3 cell growth in a cell viability assay.

C3A = test: cells; type: functional, cell-based, Homo sapiens; conditions: Homo sapiens, C3A;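 note: growth inhibition of C3A human cells, quantified with a cell viability readout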
Description: SANGER: Inhibition of human C3A cell growth in a cell viability assay.

CA46 = test: cells; type: functional, cell-based, Homo sapiens; conditions: Homo sapiens, CA46;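 note: growth inhibition of human CA46 cells, read out by a cell viability assay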
Description: SANGER: Inhibition of human CA46 cell growth in a cell viability assay.

CAKI-1 = test: cells; type: functional, cell-based, Homo sapiens; conditions: Homo sapiens, CAKI-1;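 note: growth inhibition of CAKI-1 cells, measured by a cell viability assay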
Description: SANGER: Inhibition of human CAKI-1 cell growth in a cell viability assay.

U-251 = test: cells; type: functional, cell-based, Homo sapiens; conditions: Homo sapiens, U-251;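 note: growth inhibition of human U-251 cells, read out through a cell viability assay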
Description: SANGER: Inhibition of human U251 cell growth in a cell viability assay.

YAPC = test: cells; type: functional, cell-based, Homo sapiens; conditions: Homo sapiens, YAPC;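 note: growth inhibition of YAPC cells, measured with a cell viability assay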
Description: SANGER: Inhibition of human YAPC cell growth in a cell viability assay.

CHP-126 = test: cells; type: functional, cell-based, Homo sapiens; conditions: Homo sapiens, CHP-126
Description: SANGER: Inhibition of human CHP-126 cell growth in a cell viability assay.

CMK = test: cells; type: functional, cell-based, Homo sapiens; conditions: Homo sapiens, CMK
Description: SANGER: Inhibition of human CMK cell growth in a cell viability assay.

SMILES: Oc1ccc2ccccc2c1SSc1c(O)ccc2ccccc12
- pIC50 (DBTRG-05MG): < 4.49
- pIC50 (Daoy): 5.49
- pIC50 (EFO-27): < 4.49
- pIC50 (EGI-1): < 4.49
- pIC50 (EVSA-T): < 4.49
- pIC50 (HCC1395): < 4.49
- pIC50 (HCC1419): < 4.49
- pIC50 (HCT-116): < 4.49
- pIC50 (HEC-1): < 4.49
- pIC50 (HGC-27): 4.77
- pIC50 (IGR-1): < 4.49
- pIC50 (KOSC-2): < 4.49
- pIC50 (KYSE-520 cell line): < 4.49
- pIC50 (MDA-MB-175-VII): < 4.49
- pIC50 (MDA-MB-231): < 4.49
- pIC50 (MHH-ES-1): < 4.49
- pIC50 (MONO-MAC-6): < 4.49
- pIC50 (NALM-6): 6.01
- pIC50 (NCI-H1573): < 4.49
- pIC50 (NCI-H2087): < 4.49
- pIC50 (NCI-H292): < 4.49
- pIC50 (NCI-H889): < 4.49
- pIC50 (OVCAR-8): < 4.49
- pIC50 (P31-FUJ): < 4.49
- pIC50 (PANC-03-27): < 4.49
- pIC50 (RPMI-6666): < 4.49
- pIC50 (RPMI 8402): 5.24
- pIC50 (S-117): 4.50
- pIC50 (SCC-4): < 4.49
- pIC50 (SIMA): < 4.49
- pIC50 (SK-LU-1): 4.72
- pIC50 (SNU-423): < 4.49
- pIC50 (SNU-449): < 4.49
- pIC50 (A-431): < 4.49
- pIC50 (AGS): < 4.49
- pIC50 (BC1 cell line): < 4.49
- pIC50 (BPH-1): < 4.49
- pIC50 (BXPC-3): < 4.49
- pIC50 (C3A): 4.52
- pIC50 (CA46): 5.44
- pIC50 (CAKI-1): < 4.49
- pIC50 (U-251): < 4.49
- pIC50 (YAPC): < 4.49
- pIC50 (CHP-126): 5.17
- pIC50 (CMK): 5.50

SMILES: C=C(c1ccc(C(=O)O)cc1)c1cc2c(cc1C)C(C)(C)CCC2(C)C [BEXAROTENE]
- pIC50 (DBTRG-05MG): < 5.10
- pIC50 (Daoy): < 5.10
- pIC50 (EFO-27): < 5.10
- pIC50 (EGI-1): < 5.10
- pIC50 (EVSA-T): < 5.10
- pIC50 (HCC1395): < 5.10
- pIC50 (HCC1419): < 5.10
- pIC50 (HCT-116): < 5.10
- pIC50 (HEC-1): < 5.10
- pIC50 (HGC-27): < 5.10
- pIC50 (IGR-1): < 5.10
- pIC50 (KOSC-2): < 5.10
- pIC50 (KYSE-520 cell line): < 5.10
- pIC50 (MDA-MB-175-VII): < 5.10
- pIC50 (MDA-MB-231): < 5.10
- pIC50 (MHH-ES-1): < 5.10
- pIC50 (MONO-MAC-6): < 5.10
- pIC50 (NALM-6): < 5.10
- pIC50 (NCI-H1573): < 5.10
- pIC50 (NCI-H2087): < 5.10
- pIC50 (NCI-H292): < 5.10
- pIC50 (NCI-H889): < 5.10
- pIC50 (OVCAR-8): < 5.10
- pIC50 (P31-FUJ): < 5.10
- pIC50 (PANC-03-27): < 5.10
- pIC50 (RPMI-6666): < 5.10
- pIC50 (RPMI 8402): < 5.10
- pIC50 (S-117): < 5.10
- pIC50 (SCC-4): < 5.10
- pIC50 (SIMA): < 5.10
- pIC50 (SK-LU-1): < 5.10
- pIC50 (SNU-423): < 5.10
- pIC50 (SNU-449): < 5.10
- pIC50 (A-431): < 5.10
- pIC50 (AGS): < 5.10
- pIC50 (BC1 cell line): < 5.10
- pIC50 (BPH-1): < 5.10
- pIC50 (BXPC-3): < 5.10
- pIC50 (C3A): < 5.10
- pIC50 (CA46): < 5.10
- pIC50 (CAKI-1): < 5.10
- pIC50 (U-251): < 5.10
- pIC50 (YAPC): < 5.10
- pIC50 (CHP-126): < 5.10
- pIC50 (CMK): < 5.10

SMILES: CCC/C=C/C=C/C(=O)O[C@H]1/C(=C/C(=O)OC)C[C@H]2C[C@H]([C@@H](C)O)OC(=O)C[C@H](O)C[C@@H]3C[C@H](OC(C)=O)C(C)(C)[C@](O)(C[C@@H]4C/C(=C/C(=O)OC)C[C@H](/C=C/C(C)(C)[C@]1(O)O2)O4)O3 [BRYOSTATIN 1]
- pIC50 (DBTRG-05MG): < 8.10
- pIC50 (Daoy): < 8.10
- pIC50 (EFO-27): < 8.10
- pIC50 (EGI-1): < 8.10
- pIC50 (EVSA-T): < 8.10
- pIC50 (HCC1395): < 8.10
- pIC50 (HCC1419): < 8.10
- pIC50 (HCT-116): < 8.10
- pIC50 (HEC-1): < 8.10
- pIC50 (HGC-27): < 8.10
- pIC50 (IGR-1): < 8.10
- pIC50 (KOSC-2): < 8.10
- pIC50 (KYSE-520 cell line): < 8.10
- pIC50 (MDA-MB-175-VII): < 8.10
- pIC50 (MDA-MB-231): < 8.10
- pIC50 (MHH-ES-1): < 8.10
- pIC50 (MONO-MAC-6): < 8.10
- pIC50 (NALM-6): < 8.10
- pIC50 (NCI-H1573): 8.63
- pIC50 (NCI-H2087): < 8.10
- pIC50 (NCI-H292): < 8.10
- pIC50 (NCI-H889): < 8.10
- pIC50 (OVCAR-8): < 8.10
- pIC50 (P31-FUJ): < 8.10
- pIC50 (PANC-03-27): < 8.10
- pIC50 (RPMI-6666): < 8.10
- pIC50 (RPMI 8402): < 8.10
- pIC50 (S-117): 8.23
- pIC50 (SCC-4): < 8.10
- pIC50 (SIMA): < 8.10
- pIC50 (SK-LU-1): < 8.10
- pIC50 (SNU-423): < 8.10
- pIC50 (SNU-449): < 8.10
- pIC50 (A-431): < 8.10
- pIC50 (AGS): < 8.10
- pIC50 (BC1 cell line): < 8.10
- pIC50 (BPH-1): 8.22
- pIC50 (BXPC-3): < 8.10
- pIC50 (C3A): < 8.10
- pIC50 (CA46): < 8.10
- pIC50 (CAKI-1): < 8.10
- pIC50 (U-251): < 8.10
- pIC50 (YAPC): < 8.10
- pIC50 (CHP-126): < 8.10
- pIC50 (CMK): < 8.10
